Numbers after ± are expanded uncertainties.

For the data set the following is noted: Liquid, Closed cell (Static) method.

As usually defined, the vapor or sublimation pressure is the equilibrium pressure above the liquid or solid. With `FCC(F)(F)F` [1,1,1,2-tetrafluoroethane], the “vapor or sublimation pressure” value is, setting by setting: (295.4 K) 612 ± 1.3 kPa; (300 K) 704.4 ± 1.5 kPa; (304 K) 788.5 ± 1.6 kPa.

These data come from the NIST ThermoML archive (doi:10.1021/je060330k).
